Measurements reported in patent publication US12257280B2, “Composition for preventing or treating muscular diseases, containing, as active ingredient, Glycyrrhiza uralensis extract or compound isolated therefrom” (NEO CREMAR CO., LTD., priority 2019, dated 2025).

What was measured:
[1] = system: C2C12 cells; experiment: Differentiation of myoblasts into myotubes (Giemsa stain, fusion index); assay type: cell-based, mouse
Procedure: The medium was changed every 2 days and the cells were cultured at 37° C. The medium of the cells was removed and the cells were washed with PBS. After washing, a 1:1 volume ratio of methanol:PBS was treated and then fixed for 2 minutes. Additionally, a 2:1 volume ratio of methanol:PBS reagent was added, followed by further fixation for 2 minutes. After 2 minutes, 0.04% Giemsa reagent was added, allowed to stand for 30 minutes, washed with PBS after 30 minutes, and then the appearance of the cells was observed under a microscope, and three photos of the cells were taken (300×). In the photographs taken, the number of fused nuclei in the myotube cells was counted, the total number of nuclei was counted, and the number of fused nuclei was divided by the total number of nuclei to calculate % value.

[2] = system: C2C12 cells; experiment: Myoblast proliferation verification (MTT assay) in C2C12 cells; assay type: cell-based, mouse; conditions: for increased proliferation of cells compared to untreated cells: isolated final compounds, 0.5 ng/ml, 1 day, MTT (FIG. 7a)
Procedure: C2C12 cells, a mouse myoblast cell line, were cultured in Dulbecco's Modified Eagle's Medium (DMEM) containing 10% Fetal bovine serum (FBS) and 1% Penicillin/streptomycin (P/S).
To verify cell proliferation, the cell culture medium was removed and the cells was washed with DMEM, and then 500 μl of MTT reagent (0.5 mg/ml) dissolved in phosphate buffered saline (PBS) was added to each well and left for 1 hour at 37° C. The reaction solution was removed and 1000 μl of dimethyl sulfoxide (DMSO) was added to each well. Purple formazan crystals were completely dissolved in DMSO and absorbance was measured at 540 nm.

[3] = system: C57BL/6 mice; experiment: Muscle regeneration effect in mice with or without cardiotoxin (CTX) injection into gastrocnemius muscle; assay type: in vivo, mouse
Procedure: In order to observe the muscle regeneration effect according to the treatment of hot water extract of licorice or the final substance liquiritigenin, the mice were ingested with licorice hot water extract or liquiritigenin and Cardiotoxin (CTX) was/was not injected into the muscle and then the morphology and regeneration of the muscles were observed. C57BL/6 mice were ingested with licorice hot water extract (100 mg/kg) or liquiritigenin (15 mg/kg) and […] cardiotoxin was injected into the gastrocnemius muscle. After cardiotoxin injection, licorice hot water extract or liquiritigenin was ingested every day, and muscle tissue was sampled 7 days after non-injection or injection of cardiotoxin. The diameter (μm) of the muscle secured 7 days after non-injection or injection of cardiotoxin was measured using an image J program.

[4] = isolated final compounds, 0.25 ng/ml (FIG. 7b)
[5] = purchased compounds, 0.25 ng/ml (FIG. 7c)
[6] = purchased compound, 15 mg/kg ingested daily

| SMILES | myotube formation and fusion index increase [1, 4] [%] | myotube formation and fusion index increase ([1]; purchased compounds (FIG. 7d)) [%] | increased proliferation of cells compared to untreated cells [2] [%] | proliferation of cells increased compared to non-treated cells ([2]; purchased compound, 1 ng/ml (FIG. 7c)) [%] | proliferation of cells increased compared to non-treated cells [2, 5] [%] | diameter of the regenerated muscle ([3]; 15 mg/kg, CTX-injected, 7 days, not ingested 78±4) [μm] | muscle diameter (muscle fiber size) ([3]; 15 mg/kg, second pair of values, apparently non-injected muscle, not ingested 124±4) [μm] | body and gastrocnemius muscle weights vs non-treated controls [3, 6] | muscle mass reductions vs non-treated controls [3, 6] |
| --- | --- | --- | --- | --- | --- | --- | --- | --- | --- |
| COc1c(/C=C/C(=O)c2ccc(O)cc2)ccc(O)c1O [licochalcone B, Licochalcone B] | 19 | 20 | 11 | 11 | – | – | – | – | – |
| O=C1C[C@@H](c2ccc(O)cc2)Oc2cc(O)ccc21 [liquiritigenin, Liquiritigenin] | 13 | 20 | 10 | – | 5 | 91±3 | 139±4 | similar | less |
| COc1c(/C=C/C(=O)c2ccc(O)c(O)c2)ccc(O)c1O [tetrahydroxymethoxychalcone, Tetrahydroxy methoxychalcone] | 28 | 23 | 8 | – | 5 | – | – | – | – |
